Assay results as given in patent publication EP1210950B1, “Composition against Coccidiosis” (New Pharma Research Sweden AB, priority 2000, dated 2002).

What was measured:
[1] = test system: Eimeria spp.oocysts; assay: Anticoccidiocidal activity, test A1 (oocyst count in faeces of infected chickens, medicated feed); type: in vivo; conditions: 23 birds in each group
Excerpt: A total of 92 one day old Habbared X breed chickens were used in the test. They were allocated into 4 groups (23 birds in each group), one group serving as a control group.
(§1) Each composition to be tested was mixed in a sufficient amount of feed for each group and was used for daily feeding from the day zero of the test. Fresh water was supplied ad-libetum.

[2] = test system: Eimeria spp.oocysts; assay: Anticoccidiocidal activity, test A2 (oocyst count in faeces of infected chickens, medicated feed); type: in vivo; conditions: 22 birds in each group
Excerpt: A total of 88 one day old Habbared X breed chickens were used in the test. They were allocated into 4 groups (22 birds in each group), one group serving as a control group.
as §1

[3] = test system: Eimeria spp.oocysts; assay: Anticoccidiocidal activity, test A3 (single components; oocyst count in faeces, Mc-Master technique); type: in vivo, chickens; conditions: 20 birds in each group; for Mean No. of Eimeria spp.oocysts/gram faeces/group, 5 d.p.i. / Mean No. of Eimeria spp.oocysts/gram faeces/group, 6 d.p.i. / Mean No. of Eimeria spp.oocysts/gram faeces/group, 7 d.p.i. / Mean No. of Eimeria spp.oocysts/gram faeces/group, 8 d.p.i. / Mean No. of Eimeria spp.oocysts/gram faeces/group, 9 d.p.i. / Mean No. of Eimeria spp.oocysts/gram faeces/group, 10 d.p.i. / Mean No. of Eimeria spp.oocysts/gram faeces/group, 12 d.p.i.: during feeding with tested product; for Mean No. of Eimeria spp.oocysts/gram faeces/group, 5 d.p.i.: oral infection with mixture of 5 Eimeria strains, ppm in feed as given per group; for Total number of oocysts: sum of 5-12 d.p.i.
Excerpt: A total of 100 one day old Habbared X breed chickens were used in the test. They were reared on un-medicated feed as one group during the first 3 days. After that they were allocated into 5 groups (20 each) in 5 separate (1 x 1 meter) pens. With the beginning of the day 8 of bird life, the composition to be tested was mixed into the feed of each group and was used for daily feeding. Fresh water was supplied ad-libetum. The test groups were: [table] The birds were kept on medicated feed for totally […]. […] Eimeria acervulina, E. maxima, E. necatrix, E. tenella and E. brunetti. Fresh fecal droplets were collected daily from the 4th day post experimental infection until day 13 post infection. Mean number of oocyst per gram […] for each group were calculated using the Mc-Master technique according to Soulsby (1984).

[4] = 6 d.p.i., during feeding with tested product, ppm in feed as given per group
[5] = 7 d.p.i., during feeding with tested product
[6] = 8 d.p.i., during feeding with tested product
[7] = 9 d.p.i., during feeding with tested product
[8] = 10 d.p.i., during feeding with tested product
[9] = 11 d.p.i., during feeding with tested product
[10] = 12 d.p.i., during feeding with tested product
[11] = 13 d.p.i., during feeding with tested product

Structure (SMILES) | Mean No. of Eimeria spp.oocysts/gram faeces/group, 5 d.p.i. [3] | Mean No. of Eimeria spp.oocysts/gram faeces/group, 6 d.p.i. [3] | Mean No. of Eimeria spp.oocysts/gram faeces/group, 7 d.p.i. [3] | Mean No. of Eimeria spp.oocysts/gram faeces/group, 8 d.p.i. [3] | Mean No. of Eimeria spp.oocysts/gram faeces/group, 9 d.p.i. [3] | Mean No. of Eimeria spp.oocysts/gram faeces/group, 10 d.p.i. [3] | Mean No. of Eimeria spp.oocysts/gram faeces/group, 12 d.p.i. [3] | Total number of oocysts [3] | also measured
Cc1nc(C)c(Cl)c(O)c1Cl [Clopidol] |  |  |  |  |  |  |  |  | Mean No. of Eimeria spp.oocysts/gram faeces/group, 6 d.p.i. [1, 4]: 8 oocysts/gram faeces/group (number per thousand oocysts); Mean No. of Eimeria spp.oocysts/gram faeces/group, 7 d.p.i. [1, 5]: 9600 oocysts/gram faeces/group (number per thousand oocysts); Mean No. of Eimeria spp.oocysts/gram faeces/group, 8 d.p.i. [1, 6]: 1872 oocysts/gram faeces/group (number per thousand oocysts); Mean No. of Eimeria spp.oocysts/gram faeces/group, 9 d.p.i. [1, 7]: 3900 oocysts/gram faeces/group (number per thousand oocysts); Mean No. of Eimeria spp.oocysts/gram faeces/group, 10 d.p.i. [1, 8]: 420 oocysts/gram faeces/group (number per thousand oocysts); Mean No. of Eimeria spp.oocysts/gram faeces/group, 11 d.p.i. [1, 9]: 14 oocysts/gram faeces/group (number per thousand oocysts); Mean No. of Eimeria spp.oocysts/gram faeces/group, 12 d.p.i. [1, 10]: 53 oocysts/gram faeces/group (number per thousand oocysts); Mean No. of Eimeria spp.oocysts/gram faeces/group, 13 d.p.i. [1, 11]: 250 oocysts/gram faeces/group (number per thousand oocysts); Total number of oocysts ([1]; sum of 6-13 d.p.i.): 16117 oocysts/gram faeces/group (number per thousand oocysts); Mean No. of Eimeria spp.oocysts/gram faeces/group, 6 d.p.i. [2, 4]: 2 oocysts/gram faeces/group (number per thousand oocysts); Mean No. of Eimeria spp.oocysts/gram faeces/group, 7 d.p.i. [2, 5]: 900 oocysts/gram faeces/group (number per thousand oocysts); Mean No. of Eimeria spp.oocysts/gram faeces/group, 8 d.p.i. [2, 6]: 1300 oocysts/gram faeces/group (number per thousand oocysts); Mean No. of Eimeria spp.oocysts/gram faeces/group, 9 d.p.i. [2, 7]: 980 oocysts/gram faeces/group (number per thousand oocysts); Mean No. of Eimeria spp.oocysts/gram faeces/group, 10 d.p.i. [2, 8]: 1500 oocysts/gram faeces/group (number per thousand oocysts); Mean No. of Eimeria spp.oocysts/gram faeces/group, 11 d.p.i. [2, 9]: 200 oocysts/gram faeces/group (number per thousand oocysts); Mean No. of Eimeria spp.oocysts/gram faeces/group, 12 d.p.i. [2, 10]: 200 oocysts/gram faeces/group (number per thousand oocysts); Mean No. of Eimeria spp.oocysts/gram faeces/group, 13 d.p.i. [2, 11]: 130 oocysts/gram faeces/group (number per thousand oocysts); Total number of oocysts ([2]; sum of 6-13 d.p.i.): 5212 oocysts/gram faeces/group (number per thousand oocysts)
NC(N)=Nc1nc(CSCCC(N)=NS(N)(=O)=O)cs1 [Famo-tidine, Famotidine] | 0.0 oocysts/gram faeces/group (number per thousand oocysts) | 0.0 oocysts/gram faeces/group (number per thousand oocysts) | 160 oocysts/gram faeces/group (number per thousand oocysts) | 280 oocysts/gram faeces/group (number per thousand oocysts) | 460 oocysts/gram faeces/group (number per thousand oocysts) | 10 oocysts/gram faeces/group (number per thousand oocysts) | 0 oocysts/gram faeces/group (number per thousand oocysts) | 910 oocysts/gram faeces/group (number per thousand oocysts) | 
CN[C@@H]1[C@H](O[C@H]2[C@H](O[C@H]3[C@H](O)[C@@H](O)[C@H](NC(=N)N)[C@@H](O)[C@@H]3NC(=N)N)O[C@@H](C)[C@]2(O)CO)O[C@@H](CO)[C@H](O)[C@H]1O [dihydro-streptomycin, dihydrostreptomycin] | 0.0 oocysts/gram faeces/group (number per thousand oocysts) | 38 oocysts/gram faeces/group (number per thousand oocysts) | 710 oocysts/gram faeces/group (number per thousand oocysts) | 138 oocysts/gram faeces/group (number per thousand oocysts) | 138 oocysts/gram faeces/group (number per thousand oocysts) | 0 oocysts/gram faeces/group (number per thousand oocysts) |  | 956 oocysts/gram faeces/group (number per thousand oocysts) | 
Nc1nc2ncc(CNc3ccc(C(=O)N[C@@H](CCC(=O)O)C(=O)O)cc3)nc2c(=O)[nH]1 [folic acid] | 0 oocysts/gram faeces/group (number per thousand oocysts) | 22 oocysts/gram faeces/group (number per thousand oocysts) | 251 oocysts/gram faeces/group (number per thousand oocysts) | 310 oocysts/gram faeces/group (number per thousand oocysts) | 220 oocysts/gram faeces/group (number per thousand oocysts) | 3 oocysts/gram faeces/group (number per thousand oocysts) | 0 oocysts/gram faeces/group (number per thousand oocysts) | 806 oocysts/gram faeces/group (number per thousand oocysts) | 
